Results reported in ChEMBL document CHEMBL1145398, “Bidirectional, iterative approach to the structural delineation of the functional "chemoprint" in GPR40 for agonist recognition” (J Med Chem, 2007).
pEC50: −log10 of the molar value.

Legend:
[1] = molecular target: Free fatty acid receptor 1 (Homo sapiens, UniProt O14842); experiment: Agonist activity at human GPR40 expressed in HEK-EM 293 cells assessed as increase in intracellular calcium; type: functional, cell-based, HEK293
[2] = molecular target: Free fatty acid receptor 1 (Homo sapiens, UniProt O14842, N244A); experiment: Agonist activity at human GPR40 N244A mutant expressed in HEK-EM 293 cells assessed as increase in intracellular calcium; type: functional, cell-based, HEK293
Sequence of Free fatty acid receptor 1 (Homo sapiens, UniProt O14842, N244A) (O14842 whole entry N244A): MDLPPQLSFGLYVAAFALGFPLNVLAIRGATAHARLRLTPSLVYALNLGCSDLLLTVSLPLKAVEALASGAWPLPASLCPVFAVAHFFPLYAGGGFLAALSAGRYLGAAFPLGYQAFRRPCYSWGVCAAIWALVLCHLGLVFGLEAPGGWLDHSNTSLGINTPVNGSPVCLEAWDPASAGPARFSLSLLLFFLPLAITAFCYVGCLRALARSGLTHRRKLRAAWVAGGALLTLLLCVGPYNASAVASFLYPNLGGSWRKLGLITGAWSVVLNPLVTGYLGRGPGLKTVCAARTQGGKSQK

[3] = molecular target: Free fatty acid receptor 1 (Homo sapiens, UniProt O14842, H86F); experiment: Agonist activity at human GPR40 H86F mutant expressed in HEK-EM 293 cells assessed as increase in intracellular calcium; type: functional, cell-based, HEK293
Sequence of Free fatty acid receptor 1 (Homo sapiens, UniProt O14842, H86F) (O14842 whole entry H86F): as the sequence (O14842 whole entry N244A) above, with H86F, A244N counted along it

[4] = molecular target: Free fatty acid receptor 1 (Homo sapiens, UniProt O14842, H137F); experiment: Agonist activity at human GPR40 H137F mutant expressed in HEK-EM 293 cells assessed as increase in intracellular calcium; type: functional, cell-based, HEK293
Sequence of Free fatty acid receptor 1 (Homo sapiens, UniProt O14842, H137F) (O14842 whole entry H137F): as the sequence (O14842 whole entry N244A) above, with H137F, A244N counted along it

[5] = molecular target: Free fatty acid receptor 1 (Homo sapiens, UniProt O14842, H86A); experiment: Agonist activity at human GPR40 H86A mutant expressed in HEK-EM 293 cells assessed as increase in intracellular calcium; type: functional, cell-based, HEK293
Sequence of Free fatty acid receptor 1 (Homo sapiens, UniProt O14842, H86A) (O14842 whole entry H86A): as the sequence (O14842 whole entry N244A) above, with H86A, A244N counted along it

[6] = molecular target: Free fatty acid receptor 1 (Homo sapiens, UniProt O14842, H137A); experiment: Agonist activity at human GPR40 H137A mutant expressed in HEK-EM 293 cells assessed as increase in intracellular calcium; type: functional, cell-based, HEK293
Sequence of Free fatty acid receptor 1 (Homo sapiens, UniProt O14842, H137A) (O14842 whole entry H137A): as the sequence (O14842 whole entry N244A) above, with H137A, A244N counted along it

[7] = system: Free fatty acid receptor 1 (Homo sapiens), O14842 [V237F]; experiment: Agonist activity at human GPR40 V237F mutant expressed in HEK-EM 293 cells assessed as increase in intracellular calcium; type: functional, cell-based; details: HEK293
Sequence of Free fatty acid receptor 1 (Homo sapiens), O14842 [V237F] (O14842 whole entry V237F): as the sequence (O14842 whole entry N244A) above, with V237F, A244N counted along it

[8] = system: Free fatty acid receptor 1 (Homo sapiens), O14842 [R183A]; experiment: Agonist activity at human GPR40 R183A mutant expressed in HEK-EM 293 cells assessed as effect on intracellular calcium relative to wild type; type: functional, cell-based; details: HEK293
Sequence of Free fatty acid receptor 1 (Homo sapiens), O14842 [R183A] (O14842 whole entry R183A): as the sequence (O14842 whole entry N244A) above, with R183A, A244N counted along it

[9] = system: Free fatty acid receptor 1 (Homo sapiens), O14842 [R258A]; experiment: Agonist activity at human GPR40 R258A mutant expressed in HEK-EM 293 cells assessed as effect on intracellular calcium relative to wild type; type: functional, cell-based; details: HEK293
Sequence of Free fatty acid receptor 1 (Homo sapiens), O14842 [R258A] (O14842 whole entry R258A): as the sequence (O14842 whole entry N244A) above, with A244N, R258A counted along it

[10] = system: Free fatty acid receptor 1 (Homo sapiens), O14842 [R258K]; experiment: Agonist activity at human GPR40 R258K mutant expressed in HEK-EM 293 cells assessed as effect on intracellular calcium relative to wild type; type: functional, cell-based; details: HEK293
Sequence of Free fatty acid receptor 1 (Homo sapiens), O14842 [R258K] (O14842 whole entry R258K): as the sequence (O14842 whole entry N244A) above, with A244N, R258K counted along it

Sequence of Free fatty acid receptor 1 (Homo sapiens, UniProt O14842) (O14842 whole entry): as the sequence (O14842 whole entry N244A) above, with A244N counted along it

pEC50 [1]: 6.65 | Activity ([1]; HEK293): 223 nM | pEC50 [2]: 4.75 | pEC50 [3]: 5.92 | pEC50 [4]: 5.17 | pEC50 [5]: 5.66 | pEC50 [6]: < 4.52 | Fold change [7]: 1.1 | Fold change [8]: > 100 | Fold change [9]: > 100 | Fold change [10]: > 100
SMILES: O=C(O)CCc1ccc(NCc2cccc(Oc3ccccc3)c2)cc1 [GW9508]
